Source: the NIST ThermoML archive (doi:10.1016/j.fluid.2015.10.044)
Numbers after ± are expanded uncertainties.

Settings: Pendant drop shape

Work on `CCCCn1cc[n+](C)c1.N#C[S-]` [1-butyl-3-methylimidazolium thiocyanate] yielded a surface tension liquid-gas (298.1 K) of 44.6 ± 0.7 mN/m, a surface tension liquid-gas (308.2 K) of 43.5 ± 0.7 mN/m and a surface tension liquid-gas (318.1 K) of 43 ± 0.6 mN/m. It also gave a surface tension liquid-gas (328.3 K) of 42.4 ± 0.6 mN/m, a surface tension liquid-gas (338.5 K) of 41.9 ± 0.6 mN/m and a surface tension liquid-gas (342.9 K) of 41.6 ± 0.6 mN/m.
Work on `CCn1cc[n+](C)c1.N#C[C-](C#N)C#N` [1-ethyl-3-methyl-1H-imidazolium tricyanomethanide] yielded a surface tension liquid-gas (298.3 K) of 51.1 ± 0.7 mN/m, a surface tension liquid-gas (308.1 K) of 50.7 ± 0.7 mN/m and a surface tension liquid-gas (317.9 K) of 49.9 ± 0.7 mN/m. For the same molecule, the surface tension liquid-gas (328 K) was 49.1 ± 0.7 mN/m, the surface tension liquid-gas (338.9 K) was 48.5 ± 0.7 mN/m and the surface tension liquid-gas (343 K) was 47.9 ± 0.7 mN/m.
In the case of `CCCCn1cc[n+](C)c1.N#CN=C=[N-]` [1-butyl-3-methylimidazolium dicyanamide], the surface tension liquid-gas (298.4 K) is reported as 50.6 ± 0.7 mN/m, the surface tension liquid-gas (307.9 K) is reported as 50.3 ± 0.7 mN/m and the surface tension liquid-gas (318.1 K) is reported as 49.7 ± 0.7 mN/m. The surface tension liquid-gas (328.4 K) was 48.6 ± 0.7 mN/m, the surface tension liquid-gas (339 K) was 48.1 ± 0.7 mN/m and the surface tension liquid-gas (342.9 K) was 47.5 ± 0.7 mN/m.
`CCn1cc[n+](C)c1.N#C[B-](C#N)(C#N)C#N` [1-ethyl-3-methylimidazolium tetracyanoborate] showed a surface tension liquid-gas (298.1 K) of 49.1 ± 0.7 mN/m, a surface tension liquid-gas (307.8 K) of 48.3 ± 0.7 mN/m and a surface tension liquid-gas (318 K) of 47.4 ± 0.7 mN/m. The surface tension liquid-gas (328.7 K) was 46.6 ± 0.7 mN/m, the surface tension liquid-gas (338.8 K) was 45.8 ± 0.7 mN/m and the surface tension liquid-gas (343 K) was 45.4 ± 0.7 mN/m.
Work on `CCCCCCn1cc[n+](C)c1.N#CN=C=[N-]` [1-hexyl-3-methylimidazolium dicyanamide] yielded a surface tension liquid-gas (298 K) of 43 ± 0.6 mN/m, a surface tension liquid-gas (307.9 K) of 42.2 ± 0.6 mN/m and a surface tension liquid-gas (318.4 K) of 41.6 ± 0.6 mN/m. The surface tension liquid-gas (328.2 K) was 41 ± 0.6 mN/m, the surface tension liquid-gas (338.5 K) was 40.5 ± 0.6 mN/m and the surface tension liquid-gas (342.7 K) was 40.2 ± 0.6 mN/m.
`CCCCCCn1cc[n+](C)c1.N#C[B-](C#N)(C#N)C#N` [1-hexyl-3-methylimidazolium tetracyanoborate] gave a surface tension liquid-gas (298.6 K) of 41.5 ± 0.6 mN/m, a surface tension liquid-gas (308.4 K) of 40.8 ± 0.6 mN/m and a surface tension liquid-gas (318 K) of 40 ± 0.6 mN/m. It also gave a surface tension liquid-gas (328 K) of 39.2 ± 0.6 mN/m, a surface tension liquid-gas (338.5 K) of 38.4 ± 0.6 mN/m and a surface tension liquid-gas (342.9 K) of 38.2 ± 0.6 mN/m.
